Measured values: the C3SDB collision cross section collection

Experiments:
[1] = instrument: TW, calibrated with phosphatidylcholines (ESI+) and phosphatidylethanolamines (ESI-), doubly charged cardiolipins calibrated with poly-DL-…
[2] = [M+H]+; instrument: TW
[3] = instrument: DT, stepped-field

Structure (SMILES)	collision cross section (N2) [2]	other results
CCCCCCCC/C=C\CCCCCCCC(=O)OC(COC(=O)CCCCCCCCCCCCCCC)COP(=O)(O)OCC(O)COP(=O)(O)OCC(COC(=O)CCCCCCCC1CC1CCCCCC)OC(=O)CCCCCCCCCCCCCCC (configuration not stated) [CL(67:2)]		collision cross section (N2) ([1]; [M+2K]2+): 427.9 Å²; collision cross section (N2) ([1]; [M-2H]2-): 404.3 Å²
CCCCCC/C=C\CCCCCCCC(=O)OC(COC(=O)CCCCCCCCCCCCC)COP(=O)(O)OCC(O)COP(=O)(O)OCC(COC(=O)CCCCCCCCCCCCCCC)OC(=O)CCCCCCC/C=C\CCCCCC (configuration not stated) [CL(62:2)]		collision cross section (N2) ([1]; [M+2K]2+): 418.5 Å²
CCCCCC/C=C\CCCCCCCC(=O)OC[C@H](COP(=O)(O)OC[C@@H](O)COC(=O)CCCCCCCCCCCCCCC)OC(=O)CCCCCCC/C=C\CCCCCCCC [AcylPG(50:2)]		collision cross section (N2) ([1]; [M+Na]+): 333.1 Å²; collision cross section (N2) ([1]; [M-H]-): 322.71 Å²
CCCCCCCC/C=C\CCCCCCCC(=O)OC(COC(=O)CCCCCCCCCCCCCCCCC)COP(=O)(O)OCC(O)CO (configuration not stated) [PG(36:1)]		collision cross section (N2) ([1]; [M-H]-): 276.25 Å²
CCCCCC/C=C/CCCCCCCC(=O)O[C@H](CO)COP(=O)([O-])OCC[NH3+] [LPE(0:0/16:1)]		collision cross section (N2) ([1]; [M+H]+): 208.94 Å²; collision cross section (N2) ([1]; [M+Na]+): 212.72 Å²; collision cross section (N2) ([1]; [M-H]-): 203.66 Å²
Nc1ccc(S(=O)(=O)Nc2cnc3ccccc3n2)cc1 [Sulfaquinoxaline]	164.8 Å²	
Cc1cccc(Nc2ccccc2C(=O)O)c1C [Mefenamic acid]	150.5 Å²	
CCCCCCC1CC1CCCCCCCC(=O)OC[C@@H](O)COP(=O)([O-])OCC[NH3+] (some centres not stated) [LPE(17:1/0:0)]		collision cross section (N2) ([1]; [M+H]+): 212.27 Å²; collision cross section (N2) ([1]; [M+Na]+): 219.72 Å²; collision cross section (N2) ([1]; [M-H]-): 208.15 Å²
CCCCCCCC/C=C\CCCCCCCC(=O)OC(COC(=O)CCCCCCCCCCCCCCC)COP(=O)(O)OCC(O)CO (configuration not stated) [PG(34:1)]		collision cross section (N2) ([1]; [M+Na]+): 281.03 Å²; collision cross section (N2) ([1]; [M-H]-): 270.03 Å²
CCCCCCCCCCCCCC(=O)O[C@H](CO)COP(=O)([O-])OCC[NH3+] [LPE(0:0/14:0)]		collision cross section (N2) ([1]; [M+H]+): 208.79 Å²; collision cross section (N2) ([1]; [M+Na]+): 213.66 Å²; collision cross section (N2) ([1]; [M-H]-): 198.83 Å²
CC(=O)c1ccc2c(c1)N(CCCN(C)C)c1ccccc1S2 [Acetopromazine]	160.5 Å²	
CNC(=O)N(C)c1nc2ccccc2s1 [Methabenzthiazuron]	142.47 Å²	
O=C2\C(=C(/N(N2c1ccccc1)C)C)C(C)C [Propyphenazone]	150 Å²	
O=C(NC(=O)c1c(F)cccc1F)Nc1ccc(OC(F)(F)C(F)OC(F)(F)F)c(Cl)c1 (configuration not stated) [Novaluron]	196.35 Å²	
CCCCCC/C=C\CCCCCCCC(=O)OC[C@H](O)COP(=O)(O)OC[C@@H](COC(=O)CCCCCCC/C=C\CCCCCC)OC(=O)CCCCCCCC1CC1CCCCCCCCCC (some centres not stated) [AcylPG(53:3)]		collision cross section (N2) ([1]; [M-H]-): 332.67 Å²
CC(C)(C)NCC(O)c1cc(Cl)c(N)c(Cl)c1 (configuration not stated) [Clenbuterol]	159.2 Å²	
Cc1cc(NS(=O)(=O)c2ccc(N)cc2)no1 [Sulfamethoxazole]	146.3 Å²	
O=C(NC(=O)c1c(F)cccc1F)Nc1cc(Cl)c(F)c(Cl)c1F [Teflubenzuron]	171.81 Å²	
CC1(C)OC(=O)C(OCC2CC2)=C1c1ccc(S(C)(=O)=O)cc1 [Firocoxib]	182.1 Å²	
C[C@]12CCC(=O)C=C1CC[C@@H]1[C@@H]2CC[C@@]2(C)[C@H]1CC[C@]2(C)O [17a-Methyltestosterone]	173.7 Å²	
CCCCc1c(C)nc(NCC)[nH]c1=O [Ethirimol]	150.65 Å²	
O=[N+]([O-])/N=C1\NCCN1Cc1ccc(Cl)nc1 [Imidacloprid]	149.62 Å²	

Structure (SMILES)	collision cross section (N2) [2]	other results
Nc1c(Cl)c(F)nc(OCC(=O)O)c1Cl [Fluroxypyr]	140.69 Å²	
N#CC(CCc1ccc(Cl)cc1)(Cn1cncn1)c1ccccc1 (configuration not stated) [Fenbuconazole]	182.44 Å²	
CCCCOC(=O)N(C)SN(C)C(=O)Oc1cccc2c1OC(C)(C)C2 [Furathiocarb]	190.73 Å²	
C/C(=N\C#N)N(C)Cc1ccc(Cl)nc1 [Acetamiprid]	150.24 Å²	
CCCN(CCC)C(=O)SCc1ccccc1 [Prosulfocarb]	156.95 Å²	
C=C1C[C@@]23CC[C@H]4[C@@](C)(CCC[C@@]4(C)C(=O)O)[C@@H]2CC[C@]1(O[C@@H]1O[C@H](CO)[C@@H](O)[C@H](O)[C@H]1O[C@@H]1O[C@H](CO)[C@@H](O)[C@H](O)[C@H]1O)C3 [Steviolbioside]	235.78 Å²	
Cc1ccc(/N=C(/O)N(C)C)cc1Cl [Chlortoluron]	145.96 Å²	
COc1ccc(/C(=C/C(=O)N2CCOCC2)c2ccc(Cl)cc2)cc1OC [Dimethomorph I]	199.03 Å²	
Cc1ccnc(NS(=O)(=O)c2ccc(N)cc2)n1 [Sulfamerazine]	154.8 Å²	
O=C\1\C=C/[C@]3(/C(=C/1)CC[C@H]4[C@@H]2CCC(=O)[C@]2(CC[C@H]34)C)C [1,4-androstadiene-3,17-dione]	166.5 Å²	
COc1nc(C)nc(NC(=O)NS(=O)(=O)c2ccccc2CCC(F)(F)F)n1 [Prosulfuron]	187.01 Å²	
Cc1nnc(-c2ccccc2)c(=O)n1N [Metamitron]	140.93 Å²	
C=C[C@]1(C)C[C@@H](OC(=O)CSCCN(CC)CC)C2(C)C(C)CC[C@]3(CCC(=O)[C@@H]23)[C@@H](C)[C@@H]1O (some centres not stated) [Tiamulin]	218.9 Å²	
Fc1ccc(cc1)N\3c2cc(c(F)cc2C(=O)C(/C(=O)O)=C/3)N4CCNCC4 [Sarafloxacine]	202 Å²	
CCOC(=O)C1CC(=O)C(=C(O)C2CC2)C(=O)C1 (configuration not stated) [Trinexapac-ethyl]	152.92 Å²	
CC(C)(C)[C@H](O)[C@H](Cc1ccc(Cl)cc1)n1cncn1 (racemic) [Paclobutrazol]	168.73 Å²	
CCNc1nc(Cl)nc(NCC)n1 [Simazine]	142.09 Å²	
Cc1ccc(-c2c(Cl)nc(C#N)n2S(=O)(=O)N(C)C)cc1 [Cyazofamid]	166.69 Å²	
O=[N+]([O-])c1cnc(CO)n1CCO [Hydroxymetronidazole]	128.2 Å²	
Cc1nn(C)c(Oc2ccccc2)c1/C=N/OCc1ccc(C(=O)OC(C)(C)C)cc1 [Fenpyroximate]	215.89 Å²	
C[C@]12Cc3cn[nH]c3C[C@@H]1CC[C@@H]1[C@@H]2CC[C@@]2(C)[C@H]1C[C@H](O)[C@]2(C)O [16B-hydroxystanozolol]	192.1 Å²	
CC1C(c2ccc(Cl)cc2)SC(=O)N1C(=O)NC1CCCCC1 (configuration not stated) [Hexythiazox]	183.83 Å²	

Structure (SMILES)	collision cross section (N2) [2]	other results
CCN(CC)C(=O)c1cccc(C)c1 [DEET]	142.48 Å²	
N#Cc1nn(-c2c(Cl)cc(C(F)(F)F)cc2Cl)c(N)c1S(=O)C(F)(F)F (configuration not stated) [Fipronil]	180.77 Å²	
CC(C(=O)O)c1ccc2c(c1)[nH]c1ccc(Cl)cc12 (configuration not stated) [Carprofen]	156.1 Å²	
CCc1cccc(C)c1N(C(=O)CCl)C(C)COC (configuration not stated) [Metolachlor]	158.23 Å²	collision cross section (N2) ([3]; [M+H]+): 161.46 Å²; collision cross section (N2) ([3]; [M+Na]+): 175.84 Å²
CN(C)C(=O)Nc1ccc(Oc2ccc(Cl)cc2)cc1 [Chloroxuron]	172.24 Å²	
C=CCOC(Cn1ccnc1)c1ccc(Cl)cc1Cl (configuration not stated) [Imazalil]	164.99 Å²	
Cc1nc(N(C)C)nc(OC(=O)N(C)C)c1C [Pirimicarb]	154.68 Å²	
O=C(CCCN1CCC(O)(c2ccc(Cl)cc2)CC1)c1ccc(F)cc1 [Haloperidol]	193.9 Å²	
C[C@]12Cc3cn[nH]c3C[C@@H]1CC[C@@H]1[C@@H]2CC[C@@]2(C)[C@H]1CC[C@]2(C)O [Stanozolol]	185.2 Å²	
Cc1ncc([N+](=O)[O-])n1CCO [Metronidazole]	124.2 Å²	
CCCSP(=O)(OCC)SCCC [Ethoprophos]	149.27 Å²	
C=C[C@]1(C)C[C@@H](OC(=O)CSC(C)(C)CNC(=O)[C@H](N)C(C)C)[C@]2(C)[C@H](C)CC[C@]3(CCC(=O)[C@H]32)[C@@H](C)[C@@H]1O [Valnemulin]	233.3 Å²	
CC(C)N1C(=O)N(c2ccccc2)CS/C1=N\C(C)(C)C [Buprofezin]	173.58 Å²	
O=C(Nc1ccccc1)N(Cc1ccc(Cl)cc1)C1CCCC1 [Pencycuron]	179.71 Å²	
FC(F)C(F)(F)OCC(Cn1cncn1)c1ccc(Cl)cc1Cl (configuration not stated) [Tetraconazole]	174.34 Å²	
CON(C)C(=O)Nc1ccc(Br)cc1 [Metobromuron]	145.41 Å²	
CSc1nnc(C(C)(C)C)c(=O)n1N [Metribuzin]	146.95 Å²	collision cross section (N2) ([3]; [M+H]+): 150.5 Å²; collision cross section (N2) ([3]; [M+Na]+): 171.27 Å²
CC1=C(C(=O)Nc2ccccc2)SCCO1 [Carboxin]	149.35 Å²	
Nc1cnn(-c2ccccc2)c(=O)c1Cl [Chloridazon]	141.59 Å²	
COC(=O)N(OC)c1ccccc1COc1ccn(-c2ccc(Cl)cc2)n1 [Pyraclostrobin]	183.19 Å²	
